Test results as given in EP1013272A1, “Manipulation of the activity of a nitric oxide radical production pathway for the treatment of diseases associated with the presence of oxygen free radicals” (Biomedical Primate Research Centre (BPRC), priority 1998, dated 2000).

Columns and labels:
[1] = tested on: Con A-activated splenocytes; experiment: ELISPOT enumeration of IFN-γ and IL-4 producing cells in Con A-stimulated spleen cell cultures with culture supplements; type: cell-based, rat
Procedure: The aseptically removed spleen was gently crushed with the blunt end of a 5-ml syringe plunger and passaged through a fine mesh nylon screen. Erythrocytes were hemolysed by adding cold sterile water for 20 sec. to cell pellets followed by the addition of half the volume of 2.7% saline. The number of cells was determined by use of Türk's solution and cell viability by means of trypan blue exclusion. Cell suspensions in which the viability was less than 85% were excluded from the studies. Splenocytes were washed twice with CM5, adjusted to 4 x 10^6 cells/ml, transferred to a 24-well culture plate (1.0 ml/well) and stimulated with Con A (5 µg/ml) in the presence or absence of various supplements (as indicated in the text) for 40 h at 37°C in a humidified atmosphere containing 5% CO2. Thereafter, non-adherent cells were collected and subjected to ELISPOT analyses as described below.
The ELISPOT assay for detecting single cytokine secreting cells has been detailed previously (17). Briefly, the wells of PVC microplates were coated with monoclonal antibodies specific for rat IFN-γ or rat IL-4. After washing and postcoating, 100 µl suspensions of Con A-activated splenocytes were pipetted into the wells. The cells were allowed the produce cytokines for either 4 h (IFN-γ pc) or 16 h (IL-4 pc). Thereafter, cells were lysed for 10 minutes with ice-cold distilled water. Subsequently, the wells were thoroughly washed with PBS containing 0.05% Tween-20. Spots were detected by the sequential incubation of biotinylated rabbit anti-cytokine antibodies and goat anti-biotin antibodies conjugated to alkaline phosphatase (AP). The AP substrate 5-bromo-4-chloro-3-indolyl phosphate was used to produce blue zones ('spots') that visualised the positions of the individual spot-forming cells (SFC). SFC were enumerated by image analysis using a stereo microscope coupled to a colour video camera and Micro Image software from Olympus Optical Co. The frequency of spontaneously occurring SFC was always less than 1% of the mitogen-induced frequency.

[2] = GSH-mediated decomposition of GSNO in phosphate buffer (absorbance 335 nm, nitrite, nitrate, ammonia); type: physicochemical
Procedure: For each experiment GSNO was prepared freshly. […] Three independent experiments were performed with similar results. […] Nitrite levels were measured by the colorimetric Griess reaction. Two independent experiments were performed which produced similar results.
Nitrate was not detected in the solutions.

peritoneal macrophages [3] = experiment: H2O2 production by purified peritoneal macrophages (homovanillic acid/HRP); type: cell-based, rat; settings: stimulus PMA 5 ng/ml
Procedure: The spontaneous or PMA/IFN-γ-triggered release of H2O2 was determined by the same method as described for splenocytes. Macrophage monolayers were incubated for 24 h in CM10 with or without rat IFN-γ (1000 U/ml). Subsequently, cells were washed twice with prewarmed PBS and incubated for 1 h in 1.0 ml PBS containing […] CaCl2, […] MgCl2, […] D-glucose, 1.0 unit HRP, […] homovanillic acid and 5 ng/ml PMA. After termination of the reaction, the amount of oxidised homovanillic acid in the supernatant was determined spectrofluorometrically. The cellular proteins in the wells were solubilized by adding 250 µl 0.5% (w/v) sodium dodecylsulphate in 0.2 N NaOH. The amount of solubilized protein was determined by a modification of the Lowry method (19). The results are expressed as nmoles H2O2 per mg of protein.
(§1) Peritoneal cells were collected from rats by lavage with 10 ml ice-cold saline containing 50 units/ml heparin. Cells were washed twice with CM10 and resuspended in CM10 to a concentration of 2 x 10^6 cells/ml. Total cell counts were obtained with a Bürker hemocytometer and differential counts performed on centrifuge preparations fixed in absolute methanol and stained with Giemsa stain. The peritoneal cell suspension of Lewis rats consisted of 70 ± 3% macrophages, 13 ± 1% lymphocytes, 14 ± 1% granulocytes and 3 ± 1% mast cells (n = 3). […]

peritoneal macrophages [4] = experiment: Superoxide anion production by purified peritoneal macrophages (SOD-inhibitable ferricytochrome C reduction); type: cell-based, rat; settings: stimulus PMA 5 ng/ml
Procedure: as §1, with “3). The peritoneal cells of BN rats were composed of 61 ± 2% macrophages, 12 ± 1% lymphocytes, 26 ± 2% granulocytes and 2 ± 1% mast cells (n = 3). Cells were fractionated by culturing them in the wells of a 24-well tissue culture plate at a concentration of 2 x 10^6 cells/ml in CM10.” for “3).”
The pMØ monolayers were incubated for 20 h at 37°C in CM10 and subsequently washed (twice) with Hanks' balanced salt solution (HBSS) without phenol red. […] Each test was run in duplicate and the absorption increase at 550 nm was measured using a Beckmann DU-5 spectrophotometer. ^·O2^- release by splenocytes was determined after Con A activation of 4 x 10^6 cells for 20 h. […]

[5] = BN normal rats, GSH 2 mM, Con A
[6] = Lewis normal rats, GSH 2 mM, Con A
[7] = excess reducing agent added to cultures, splenocytes from BN or Lewis rats
[8] = normal Lewis rats, GSH 2 mM, no XO/HY, Con A 5 µg/ml (Table 5)
[9] = BN naive rats, NMMA 180 µM added after 20 h Con A + 2 mM GSH, further 20 h
[10] = BN naive rats, NMMA 360 µM added after 20 h Con A + 2 mM GSH, further 20 h
[11] = BN, HgCl2-exposed rats, NMMA 180 µM added after 20 h Con A + 2 mM GSH, further 20 h
[12] = BN, HgCl2-exposed rats, NMMA 360 µM added after 20 h Con A + 2 mM GSH, further 20 h
[13] = Lewis naive rats, NMMA 180 µM added after 20 h Con A + 2 mM GSH, further 20 h
[14] = Lewis naive rats, NMMA 360 µM added after 20 h Con A + 2 mM GSH, further 20 h
[15] = Lewis, HgCl2-exposed rats, NMMA 180 µM added after 20 h Con A + 2 mM GSH, further 20 h
[16] = Lewis, HgCl2-exposed rats, NMMA 360 µM added after 20 h Con A + 2 mM GSH, further 20 h

Q: For `N[C@@H](CCC(=O)N[C@@H](CS)C(=O)NCC(=O)O)C(=O)O` [GSH, Glutathione], which “IFN-γ pc per 1x10^4 MNC” value [1, 5] is on record?
A: 98 ± 11 per 1 x 10^4 MNC

Q: And the “IL-4 pc per 2x10^5 MNC” value [1, 5]?
A: 60 ± 5 per 2 x 10^5 MNC

Q: And the “ratio IFN-γ pc/IL-4 pc” value [1, 5]?
A: 34

Q: And the “IFN-γ pc per 1x10^4 MNC” value [1, 6]?
A: 139 ± 14 per 1 x 10^4 MNC

Q: And the “IL-4 pc per 2x10^5 MNC” value [1, 6]?
A: 11 ± 3 per 2 x 10^5 MNC

Q: And the “ratio IFN-γ pc/IL-4 pc” value [1, 6]?
A: 253

Q: And the “enhancement of the ratio of IFN-γ pc/IL-4 pc” value [1, 7]?
A: approximately 10 fold

Q: And the “IFN-γ pc per 1x10^4 MNC” value [1, 8]?
A: 103 ± 23 per 1 x 10^4 MNC

Q: And the “IL-4 pc per 2x10^5 MNC” value [1, 8]?
A: 6 ± 1 per 2 x 10^5 MNC

Q: And the “ratio IFN-γ pc/IL-4 pc” value [1, 8]?
A: 343

Q: Which results are given for `N[C@@H](CCC(=O)N[C@@H](CSN=O)C(=O)NCC(=O)O)C(=O)O` [GSNO, S-nitrosoglutathione]?
A: Nitrate in the solutions ([2]; GSH-triggered decomposition of GSNO): not detected; decomposition of GSNO ([2]; absence of GSH, 0.1 mM, 42 h, room temperature (not shown)): no significant decomposition; major decomposition product ([2]; molar ratios exceeding 20 (Fig. 5)): NH3; time in which decomposition was almost completed ([2]; ratio of GSH:GSNO of 320 (fig. 3)): ~5 h

Q: With `OO` [H2O2, hydrogen peroxide] as the compound, how does the “frequencies of IFN-γ pc and IL-4 pc” value ([1]; H2O2 up to 100 µM added to cultures (not shown)) read?
A: did not affect

Q: With `CNC(=N)NCCC[C@H](N)C(=O)O` [NMMA, N^G-monomethyl-L-arginine] as the compound, how does the “IFN-γ pc per 1x10^4 MNC” value [1, 9] read?
A: 209 ± 19 per 1x10^4 MNC

Q: And the “IL-4 pc per 2x10^5 MNC” value [1, 9]?
A: 32 ± 6 per 2x10^5 MNC

Q: And the “ratio pc IFN-γ/IL-4” value [1, 9]?
A: 131

Q: What about the “IFN-γ pc per 1x10^4 MNC” value [1, 10] of the same compound?
A: 251 ± 14 per 1x10^4 MNC

Q: And the “IL-4 pc per 2x10^5 MNC” value [1, 10]?
A: 30 ± 2 per 2x10^5 MNC

Q: What about the “ratio pc IFN-γ/IL-4” value [1, 10] of the same compound?
A: 167

Q: What about the “IFN-γ pc per 1x10^4 MNC” value [1, 11] of the same compound?
A: 71 ± 11 per 1x10^4 MNC

Q: And the “IL-4 pc per 2x10^5 MNC” value [1, 11]?
A: 54 ± 11 per 2x10^5 MNC

Q: And the “ratio pc IFN-γ/IL-4” value [1, 11]?
A: 26

Q: What about the “IFN-γ pc per 1x10^4 MNC” value [1, 12] of the same compound?
A: 92 ± 17 per 1x10^4 MNC

Q: And the “IL-4 pc per 2x10^5 MNC” value [1, 12]?
A: 20 ± 5 per 2x10^5 MNC

Q: And the “ratio pc IFN-γ/IL-4” value [1, 12]?
A: 92

Q: What about the “enhancement of the ratio of IFN-γ pc/IL-4 pc” value ([1]; HgCl2-exposed rats, BN splenocyte cultures) of the same compound?
A: 11 fold

Q: And the “enhancement of the ratio of IFN-γ pc/IL-4 pc” value ([1]; HgCl2-exposed rats, Lewis splenocyte cultures)?
A: 2 fold

Q: And the “IFN-γ pc per 1x10^4 MNC” value [1, 13]?
A: 175 ± 9 per 1x10^4 MNC

Q: And the “IL-4 pc per 2x10^5 MNC” value [1, 13]?
A: 14 ± 7 per 2x10^5 MNC

Q: What about the “ratio pc IFN-γ/IL-4” value [1, 13] of the same compound?
A: 250

Q: And the “IFN-γ pc per 1x10^4 MNC” value [1, 14]?
A: 178 ± 11 per 1x10^4 MNC

Q: And the “IL-4 pc per 2x10^5 MNC” value [1, 14]?
A: 13 ± 2 per 2x10^5 MNC

Q: What about the “ratio pc IFN-γ/IL-4” value [1, 14] of the same compound?
A: 274

Q: What about the “IFN-γ pc per 1x10^4 MNC” value [1, 15] of the same compound?
A: 112 ± 5 per 1x10^4 MNC

Q: And the “IL-4 pc per 2x10^5 MNC” value [1, 15]?
A: 10 ± 5 per 2x10^5 MNC

Q: What about the “ratio pc IFN-γ/IL-4” value [1, 15] of the same compound?
A: 224

Q: And the “IFN-γ pc per 1x10^4 MNC” value [1, 16]?
A: 135 ± 10 per 1x10^4 MNC

Q: And the “IL-4 pc per 2x10^5 MNC” value [1, 16]?
A: 8 ± 2 per 2x10^5 MNC

Q: And the “ratio pc IFN-γ/IL-4” value [1, 16]?
A: 338

Q: What about the “increase in the ratio of IFN-γ pc/IL-4 pc” value ([1]; splenocyte cultures of naive BN rats) of the same compound?
A: 4 fold

Q: For `CCCCCCCCCCCCCC(=O)O[C@@H]1[C@@H](C)[C@@]2(O)[C@@H](C=C(CO)C[C@]3(O)C(=O)C(C)=C[C@@H]23)[C@@H]2C(C)(C)[C@]12OC(C)=O` [PMA, phorbol 12-myristate 13-acetate], which “ROI H2O2 (nmol/mg protein)” value (peritoneal macrophages [3]; BN normal rats) is on record?
A: 8.7 nmol/mg protein

Q: And the “ROI H2O2 (nmol/mg protein)” value (peritoneal macrophages [3]; Lewis normal rats)?
A: 1.9 nmol/mg protein

Q: What about the “ROI ^·O2^- (nmol/mg protein)” value (peritoneal macrophages [4]; BN normal rats) of the same compound?
A: 388.2 nmol/mg protein

Q: What about the “ROI ^·O2^- (nmol/mg protein)” value (peritoneal macrophages [4]; Lewis normal rats) of the same compound?
A: 62.1 nmol/mg protein

Q: For `N[C@@H](CS)C(=O)O` [cysteine], which “enhancement of the ratio of IFN-γ pc/IL-4 pc” value [1, 7] is on record?
A: approximately 10 fold
